The supplement of paper PMC8612539
Values after ≈ are worked out from the molar mass of the structure shown.

Test system: Mannheimia haemolytica
Test: minimum inhibitory concentration (MIC)
Description: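 Broth microdilution MIC (Sensititre BOPO7F bovine plate, CLSI methods) of 19 antimicrobials against field isolates of P. multocida, M. haemolytica, H. somni (deep nasopharyngeal swabs) and E. coli, Enterococcus spp. (rectal swabs) from weaned dairy heifers. Incubation 16-24 h at 35 C. MIC is the lowest concentration preventing visible growth. Values with <= or > lie at the tested range limits. Trimethoprim-sulfamethoxazole is given as the trimethoprim component of a 1:19 mixture.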

CC1(C)S[C@@H]2[C@H](NC(=O)Cc3ccccc3)C(=O)N2[C@H]1C(=O)O [Penicillin]
Conditions | minimum inhibitory concentration [µg/mL]
isolate (source animal id): 8 | 0.25 (≈ 0.748 µM)
isolate (source animal id): 13 | 0.25 (≈ 0.748 µM)
isolate (source animal id): 18 | ≤ 0.12
isolate (source animal id): 21 | 0.25 (≈ 0.748 µM)
isolate (source animal id): 25 | 0.25 (≈ 0.748 µM)
isolate (source animal id): 27 | 0.25 (≈ 0.748 µM)
isolate (source animal id): 28 | > 8
isolate (source animal id): 30 | ≤ 0.12
isolate (source animal id): 31 | > 8
isolate (source animal id): 32 | ≤ 0.12
isolate (source animal id): 34 | ≤ 0.12
isolate (source animal id): 36 | ≤ 0.12
isolate (source animal id): 37 | ≤ 0.12
isolate (source animal id): 40 | ≤ 0.12
isolate (source animal id): 41 | ≤ 0.12
isolate (source animal id): 43 | 0.25 (≈ 0.748 µM)
isolate (source animal id): 46 | ≤ 0.12
isolate (source animal id): 49 | ≤ 0.12
isolate (source animal id): 50 | > 8
isolate (source animal id): 51 | 0.25 (≈ 0.748 µM)
isolate (source animal id): 52 | ≤ 0.12
isolate (source animal id): 53 | ≤ 0.12
isolate (source animal id): 55 | ≤ 0.12
isolate (source animal id): 56 | ≤ 0.12
isolate (source animal id): 57 | 0.25 (≈ 0.748 µM)
isolate (source animal id): 100 | ≤ 0.12
isolate (source animal id): 103 | ≤ 0.12
isolate (source animal id): 107 | ≤ 0.12
isolate (source animal id): 108 | ≤ 0.12
isolate (source animal id): 112 | 0.25 (≈ 0.748 µM)
isolate (source animal id): 113 | 0.5 (≈ 1.5 µM)
isolate (source animal id): 121 | > 8
isolate (source animal id): 122 | 0.25 (≈ 0.748 µM)
isolate (source animal id): 123 | 1 (≈ 2.99 µM)
isolate (source animal id): 126 | > 8
isolate (source animal id): 133 | 0.5 (≈ 1.5 µM)
isolate (source animal id): 135 | 0.25 (≈ 0.748 µM)
isolate (source animal id): 138 | > 8
isolate (source animal id): 141 | ≤ 0.12
isolate (source animal id): 142 | 0.25 (≈ 0.748 µM)
isolate (source animal id): 145 | 0.25 (≈ 0.748 µM)
isolate (source animal id): 149 | ≤ 0.12
isolate (source animal id): 151 | 0.25 (≈ 0.748 µM)
isolate (source animal id): 152 | ≤ 0.12
isolate (source animal id): 154 | 0.5 (≈ 1.5 µM)
isolate (source animal id): 159 | > 8
isolate (source animal id): 162 | > 8
isolate (source animal id): 170 | > 8
isolate (source animal id): 171 | 0.5 (≈ 1.5 µM)
isolate (source animal id): 172 | > 8
isolate (source animal id): 173 | > 8
isolate (source animal id): 179 | > 8
isolate (source animal id): 180 | > 8
isolate (source animal id): 183 | > 8
isolate (source animal id): 186 | > 8
isolate (source animal id): 187 | > 8
isolate (source animal id): 188 | > 8
isolate (source animal id): 190 | 0.5 (≈ 1.5 µM)
isolate (source animal id): 191 | > 8
isolate (source animal id): 192 | 0.25 (≈ 0.748 µM)
isolate (source animal id): 201 | > 8
isolate (source animal id): 202 | > 8
isolate (source animal id): 209 | > 8
isolate (source animal id): 211 | > 8
isolate (source animal id): 220 | > 8
isolate (source animal id): 221 | > 8
isolate (source animal id): 223 | > 8
isolate (source animal id): 233 | > 8
isolate (source animal id): 237 | 0.25 (≈ 0.748 µM)
isolate (source animal id): 241 | > 8
isolate (source animal id): 252 | 0.25 (≈ 0.748 µM)
isolate (source animal id): 253 | 0.25 (≈ 0.748 µM)
isolate (source animal id): 259 | > 8
isolate (source animal id): 260 | ≤ 0.12
isolate (source animal id): 262 | > 8
isolate (source animal id): 282 | > 8
isolate (source animal id): 287 | 0.25 (≈ 0.748 µM)
isolate (source animal id): 288 | 0.5 (≈ 1.5 µM)
isolate (source animal id): 291 | ≤ 0.12
isolate (source animal id): 293 | 0.25 (≈ 0.748 µM)
isolate (source animal id): 298 | ≤ 0.12
isolate (source animal id): 299 | 0.25 (≈ 0.748 µM)
isolate (source animal id): 300 | ≤ 0.12
isolate (source animal id): 302 | ≤ 0.12
isolate (source animal id): 304 | ≤ 0.12
isolate (source animal id): 306 | ≤ 0.12
isolate (source animal id): 308 | ≤ 0.12
isolate (source animal id): 309 | ≤ 0.12
isolate (source animal id): 313 | 0.25 (≈ 0.748 µM)
isolate (source animal id): 318 | ≤ 0.12
isolate (source animal id): 320 | ≤ 0.12
isolate (source animal id): 321 | ≤ 0.12
isolate (source animal id): 323 | 0.25 (≈ 0.748 µM)
isolate (source animal id): 324 | ≤ 0.12
isolate (source animal id): 326 | ≤ 0.12
isolate (source animal id): 328 | 0.25 (≈ 0.748 µM)
isolate (source animal id): 329 | 0.25 (≈ 0.748 µM)
isolate (source animal id): 333 | ≤ 0.12
isolate (source animal id): 335 | 0.5 (≈ 1.5 µM)
isolate (source animal id): 338 | 0.25 (≈ 0.748 µM)
